This passage reports AC50 results from US20240174670A1, “4-AMINO-6-OXO-PYRIDAZINE DERIVATIVES MODULATING NLRP3” (JANSSEN PHARMACEUTICA NV, priority 2021, published 2024).

In one assay the test system is TNF. Put plainly: PBMC assay, TNF release after LPS stimulation. Format: cell-based. Particulars: human PBMCs, 30 min preincubation, 100 ng/ml LPS for 6 hrs, supernatant, MSD technology. How it is done:
(§1) Peripheral venous blood was collected from healthy individuals and human peripheral blood mononuclear cells (PBMCs) were isolated from blood by Ficoll-Histopaque (Sigma-Aldrich, A0561) density gradient centrifugation. After isolation, PBMCs were stored in liquid nitrogen for later use. Upon thawing, PBMC cell viability was determined in growth medium (RPMI media supplemented with 10% fetal bovine serum, 1% Pen-Strep and 1% L-glutamine). Compounds were spotted in a 1:3 serial dilution in DMSO and diluted to the final concentration in 30 μl medium in 96 well plates (Falcon, 353072). PBMCs were added at a density of 7.5×10^4 cells per well and incubated for 30 min in a 5% CO2 incubator at 37 ° C. LPS stimulation was performed by addition of 100 ng/ml LPS (final concentration, Invivogen, tlrl-smlps) for 6 hrs followed by collection of cellular supernatant and the analysis of IL-1β[…] and TNF cytokines levels (uμ) via MSD technology according to manufacturers' guidelines (MSD, K151A0H).
(§2) IC50 and AC50 values (for IL-1β) and EC50 and AC50 values (TNF) were obtained on compounds of the invention/examples, and the AC50 values are depicted in the following table: […]

A further assay has as its system IL-1β. Put plainly: PBMC assay, IL-1β release after LPS stimulation. Type of assay: cell-based. The following applies: human PBMCs, 30 min preincubation, 100 ng/ml LPS for 6 hrs, supernatant, MSD technology, read-out: IL1β AC50. The protocol: The activity of a compound according to the present invention can be assessed by in vitro methods.
as §1, §2

What is called AC50 is the concentration at which the activity in the assay is half-maximal.

For `CC(C)c1nn(CC(=O)Nc2ccc3nncn3c2)c(=O)cc1N1CCCCC1` [Compound 45, N-([1,2,4]triazolo[4,3-a]pyridin-6-yl)-2-(3-isopropyl-6-oxo-4-(piperidin-1-yl)pyridazin-1(6H)-yl)acetamide], the AC50 with TNF was above 20 µM; with IL-1β, 1.23 µM.
On to `CC(C)CNc1cc(=O)n(CC(=O)Nc2ccc3nncn3c2)nc1C(C)C` [Compound 46], for which the AC50 is above 20 µM in the assay with TNF and 1.36 µM in the assay on IL-1β.
In the case of `CC(C)CN(C)c1cc(=O)n(CC(=O)Nc2ccc3nncn3c2)nc1C(C)C` [Compound 47], the results for the AC50 with TNF and with IL-1β were above 20 µM and 13.8 µM, respectively.
For `CC(C)c1nn(CC(=O)Nc2ccc3nncn3c2)c(=O)cc1N1CCN(C)CC1` [Compound 48], in that order: above 20 µM and above 20 µM.
Turning to `CC(C)c1nn(CC(=O)Nc2ccc3nncn3c2)c(=O)cc1N1CC2(CCC2)C1` [Compound 49], the half-maximal activity concentration (AC50) with TNF is 8.29 µM; with IL-1β it was 0.76 µM.
For `CC(C)c1nn(CC(=O)Nc2ccc3nncn3c2)c(=O)cc1N1CC2(COC2)C1` [Compound 50], in that order: above 20 µM and above 20 µM.
The matching figures for `CC(C)c1nn(CC(=O)Nc2ccc3nncn3c2)c(=O)cc1N1CC[C@H](C)C1` [Compound 51]: above 20 µM and 0.42 µM.
For `CC(C)c1nn(CC(=O)Nc2ccc3nncn3c2)c(=O)cc1N1CCC2(CCCO2)C1` (stereo not shown) [Compound 52], in that order: above 20 µM and above 20 µM.
As to `CC(C)c1nn(CC(=O)Nc2ccc3nncn3c2)c(=O)cc1N1CC2(C1)CC(F)(F)C2` [Compound 53], the AC50 with TNF and with IL-1β was above 20 µM in each case.
Take `CC(C)c1nn(CC(=O)Nc2ccc3nncn3c2)c(=O)cc1N1CCCCC1C` (stereo not shown) [Compound 54]: the half-maximal activity concentration (AC50) in the assay with TNF is above 20 µM; in the assay with IL-1β, 3.62 µM.
The matching figures for `CC(C)c1nn(CC(=O)Nc2ccc3nncn3c2)c(=O)cc1N1CCC[C@H](C)C1` [Compound 55]: above 20 µM and 0.51 µM.
For `CC1CC(C)CN(c2cc(=O)n(CC(=O)Nc3ccc4nncn4c3)nc2C(C)C)C1` (stereo not shown) [Compound 56], in that order: 16 µM and 0.64 µM.
As to `CC(C)c1nn(CC(=O)Nc2ccc3nncn3c2)c(=O)cc1N1CCC(Cc2ccncc2)C1` (stereo not shown) [Compound 57], the concentration at half-maximal activity (AC50) in the assay on TNF and in the assay on IL-1β was above 20 µM throughout.
As for `CC(C)c1nn(CC(=O)Nc2ccc3nncn3c2)c(=O)cc1N1CCC2(C1)CC2(F)F` (stereo not shown) [Compound 58], the results for the concentration at half-maximal activity (AC50) in the assay on TNF and in the assay with IL-1β were above 20 µM and 0.89 µM, respectively.
The matching figures for `CC(C)c1nn(CC(=O)Nc2ccc3nncn3c2)c(=O)cc1N1CCC(Oc2ccccn2)C1` (stereo not shown) [Compound 59]: 16.1 µM and 9.92 µM.
Consider `CC(C)c1nn(CC(=O)Nc2ccc3nncn3c2)c(=O)cc1N1CCCC(F)C1` (stereo not shown) [Compound 60], for which the concentration at half-maximal activity (AC50) in the assay on TNF was found to be 19.1 µM; in the assay with IL-1β, 1.59 µM.
The matching figures for `CC(C)c1nn(CC(=O)Nc2ccc3nncn3c2)c(=O)cc1N1CCC2(CC1)CC2(F)F` [Compound 61]: above 20 µM and 19.5 µM.
The matching figures for `CC(C)c1nn(CC(=O)Nc2ccc3nncn3c2)c(=O)cc1N1CCC[C@@H]1Cn1ccnc1` [Compound 62]: above 20 µM and above 20 µM.
For `CC(C)c1nn(CC(=O)Nc2ccc3nncn3c2)c(=O)cc1N1CCCC1Cc1ccccn1` (stereo not shown) [Compound 63], in that order: above 20 µM and 1.28 µM.
Turning to `CC(C)c1nn(CC(=O)Nc2ccc3nncn3c2)c(=O)cc1N1CCC(c2nccs2)C1` (stereo not shown) [Compound 64], the figures for the AC50 with TNF and in the assay on IL-1β were above 20 µM and 15.1 µM, respectively.
Consider `CC(C)c1nn(CC(=O)Nc2ccc3nncn3c2)c(=O)cc1N1CCC(c2ccncc2)C1` (stereo not shown) [Compound 65], for which the AC50 with TNF and in the assay with IL-1β was above 20 µM throughout.
In the case of `CC(C)c1nn(CC(=O)Nc2ccc3nncn3c2)c(=O)cc1NC1CC1` [Compound 66], the half-maximal activity concentration (AC50) with TNF and with IL-1β was above 20 µM in each case.
For the compound `CC(C)c1nn(CC(=O)Nc2ccc3nncn3c2)c(=O)cc1N(C)C1CC1` [Compound 67], the AC50 is above 20 µM in the assay with TNF and 10.2 µM in the assay with IL-1β.
